Where two headings read alike, the source gives them in different places. Positions of bridges follow the written chain, without caps; N, C: chain ends. Primed or numbered codes have the meaning given here. PEG8′ = 8 PEG blocks attached at the backbone of the C-terminal amino acid
Columns and labels:
complement activation [1] = assay: Hemolytic assay (rabbit erythrocytes lysed by normal human serum in VBS-MgEGTA); type: cell-based; conditions: ligand concentration at 50% maximal inhibition, triplicate runs (N = 3)
Procedure: Rabbit erythrocytes (Complement Technology, Inc, Tyler, Tex., USA) were washed with PBS and then resuspended in a veronal-buffered saline solution containing 5 mM MgCl2 and 10 mM EGTA (VBS-MgEGTA). Two-fold serial dilutions of the compstatin analogs were performed in round-bottom 96-well plates and then further diluted in VBS-MgEGTA. Normal human serum (NHS; Complement Technology, Inc) diluted in VBS-MgEGTA was added to each well followed by incubation at ambient temperature for 15 minutes. Subsequently, 30 μL of rabbit erythrocytes at a concentration of 1.25×10^8 cells/mL were added to each well. Positive controls for lysis consisted of: (1) erythrocytes in deionized water and (2) erythrocytes in NHS diluted with VBS-MgEGTA. Negative controls for lysis consisted of: (1) erythrocytes in VBS-MgEGTA and (2) erythrocytes in NHS diluted in VBS-EDTA. Next, plates were incubated at 37° C. for 20 minutes and then ice cold VBS containing 50 mM EDTA was added to each well to quench hemolytic reactions. Plates were centrifuged at 1000×g for 5 minutes and the supernatant was diluted 1:1 with deionized water in flat-bottom 96-well plates. Absorbance was measured spectrophotometrically at 405 nm to quantify lysis.

[2] = Apparent solubility measurements in PBS pH 7.4; type: physicochemical; conditions: PBS pH 7.4, 5-10 mg/mL
Procedure: Compstatin analogs were dissolved in phosphate buffered saline (PBS) at pH 7.4 to concentrations of 10, 7.5, and 5 mg/mL. At each concentration point, the peptide solutions were vortexed for 30 seconds and then centrifuged at 13000×g for 5 minutes. The supernatant was collected and measured 5 times spectrophotometrically at 280 nm. Optical densities were converted into concentration according to Beer-Lambert law. An extinction coefficient of 11125 M^−1 cm^−1 was used for each compstatin analog since each peptide contains two tryptophan amino acids (tryptophan extinction coefficient being 5562.5 M^−1 cm^−1).

[3] = test system: NHS-induced basal C5b-9n deposition by RPE cells; assay: Human RPE cell-based assay, anti-C5b-9n immunofluorescence of sub-RPE deposits; conditions: for reduction in NHS-induced basal C5b-9n deposition: 2 μM peptide, 10% NHS, 24 h, decellularized whole mounts, normalized to NHS-treated samples
Procedure: The in vitro model of drusen biogenesis was used according to Johnson et al. (Proceedings of the National Academy of Sciences of the United States of America 2011; 108(45):18277-82) and used in assessing the efficacy of compstatin peptides. Briefly, human fetal RPE cells within the second passage were grown on laminin-coated porous inserts (Millipore, Billerica, Mass., USA) in Miller medium supplemented with 5% fetal bovine serum (FBS, HyClone, Logan, Utah, USA) at 37° C. and 5% CO2 in a humidified incubator. After culturing for 2-3 months, cells were rinsed with PBS and treated with Miller medium containing either 5% FBS (negative control) or 10% NHS without or with the inhibitory peptides (2 μM). The choice of 2 μM dose for this assay was based on the intent to use double the IC50 concentration, which was determined to be ˜1 μM. All inhibitory peptides were pre-mixed with NHS on a rocker at room temperature for 30 min and then warmed to 37° C. prior to addition to RPE cell cultures for 24 h. […]
Immunolabeled RPE sections and decellularized culture inserts were imaged using a Leica SP5 confocal microscope. Single-plane images from multiple non-overlapping areas were acquired using a 63× objective, and C5b-9n (MAC) immunofluorescence signals were quantified using ImageJ (NIH), as described Gorham et al. (Experimental Eye Research 2013; 116:96-108). Briefly, the thresholding tool of ImageJ was used to analyze each color channel separately, with the upper threshold set to include C5b-9n-associated fluorescence and the lower threshold set to eliminate any background fluorescence. For statistical analysis, fluorescence intensity measurements of C5b-9n were averaged with respect to the number of RPE nuclei per image (for vibratome sections) or total image area (for decellularized whole-mount samples) and then expressed as a percentage of the corresponding fluorescence intensities from samples exposed to NHS in the absence of any inhibitory peptide (positive control). All data were obtained from multiple images (n≧9) and expressed as mean±SEM. […]

complement activation [4] = conditions: alternative pathway-mediated erythrocyte lysis assay; cited from earlier work
[5] = biological target: complement C3 in normal human serum (human, UniProt P01024 23-1663); assay: cell-based or functional assay
complement C3 in normal human serum, sequence (P01024 23-1663 limits assumed): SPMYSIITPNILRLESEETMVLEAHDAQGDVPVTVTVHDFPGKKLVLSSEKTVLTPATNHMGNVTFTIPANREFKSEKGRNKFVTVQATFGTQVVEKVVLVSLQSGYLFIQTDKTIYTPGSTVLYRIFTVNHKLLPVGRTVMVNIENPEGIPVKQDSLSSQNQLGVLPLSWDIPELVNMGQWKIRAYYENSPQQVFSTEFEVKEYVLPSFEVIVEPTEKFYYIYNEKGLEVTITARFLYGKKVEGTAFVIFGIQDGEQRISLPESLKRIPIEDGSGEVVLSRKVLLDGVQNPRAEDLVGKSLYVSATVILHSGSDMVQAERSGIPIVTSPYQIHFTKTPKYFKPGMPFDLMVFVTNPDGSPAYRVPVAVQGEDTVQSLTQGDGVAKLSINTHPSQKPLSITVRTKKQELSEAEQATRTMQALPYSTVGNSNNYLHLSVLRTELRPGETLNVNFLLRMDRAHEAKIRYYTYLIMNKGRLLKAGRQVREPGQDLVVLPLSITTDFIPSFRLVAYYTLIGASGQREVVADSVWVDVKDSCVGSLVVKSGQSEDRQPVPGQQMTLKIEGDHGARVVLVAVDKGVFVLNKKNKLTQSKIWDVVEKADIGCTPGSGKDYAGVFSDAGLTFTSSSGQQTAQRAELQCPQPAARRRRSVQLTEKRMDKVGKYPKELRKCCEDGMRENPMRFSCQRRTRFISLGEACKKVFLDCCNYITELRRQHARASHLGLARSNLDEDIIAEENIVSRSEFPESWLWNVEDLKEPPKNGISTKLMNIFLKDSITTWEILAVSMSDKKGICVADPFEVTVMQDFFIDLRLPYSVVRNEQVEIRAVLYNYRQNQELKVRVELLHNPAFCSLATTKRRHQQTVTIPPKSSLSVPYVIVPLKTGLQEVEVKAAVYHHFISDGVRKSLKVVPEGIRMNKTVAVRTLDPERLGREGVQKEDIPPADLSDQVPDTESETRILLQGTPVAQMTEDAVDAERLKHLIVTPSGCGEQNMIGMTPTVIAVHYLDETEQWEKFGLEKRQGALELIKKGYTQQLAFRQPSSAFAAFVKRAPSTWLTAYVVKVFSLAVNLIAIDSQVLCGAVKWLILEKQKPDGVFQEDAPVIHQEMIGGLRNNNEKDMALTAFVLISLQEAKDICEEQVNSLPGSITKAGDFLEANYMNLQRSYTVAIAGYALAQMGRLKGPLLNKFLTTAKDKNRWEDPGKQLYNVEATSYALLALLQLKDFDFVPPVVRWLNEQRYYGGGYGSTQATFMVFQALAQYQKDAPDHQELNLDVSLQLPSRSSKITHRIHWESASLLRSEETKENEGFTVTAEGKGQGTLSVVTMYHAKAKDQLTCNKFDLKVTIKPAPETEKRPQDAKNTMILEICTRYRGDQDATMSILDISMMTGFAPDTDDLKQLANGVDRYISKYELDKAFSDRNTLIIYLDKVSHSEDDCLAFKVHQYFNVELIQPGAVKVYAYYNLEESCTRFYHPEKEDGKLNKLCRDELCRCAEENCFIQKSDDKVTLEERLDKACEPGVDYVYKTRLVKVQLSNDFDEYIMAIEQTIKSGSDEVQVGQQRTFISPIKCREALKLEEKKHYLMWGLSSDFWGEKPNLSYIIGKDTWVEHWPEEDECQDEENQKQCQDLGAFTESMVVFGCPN

[6] = biological target: T1, purified C3c (Complement Technology) (UniProt P01024 23-667; P01024 749-954; P01024 1321-1663, limits assumed); assay: competitive microscale thermophoresis (Monolith NT.115); Peptide 2 titrated against Cy5-labeled Competition Peptide on purified C3c
T1 construct: domain: C3c; C3c is a multi-chain proteolytic fragment of C3; also called complement protein C3c
T1 sequence (P01024 23-667 limits assumed, chain 1 of 3): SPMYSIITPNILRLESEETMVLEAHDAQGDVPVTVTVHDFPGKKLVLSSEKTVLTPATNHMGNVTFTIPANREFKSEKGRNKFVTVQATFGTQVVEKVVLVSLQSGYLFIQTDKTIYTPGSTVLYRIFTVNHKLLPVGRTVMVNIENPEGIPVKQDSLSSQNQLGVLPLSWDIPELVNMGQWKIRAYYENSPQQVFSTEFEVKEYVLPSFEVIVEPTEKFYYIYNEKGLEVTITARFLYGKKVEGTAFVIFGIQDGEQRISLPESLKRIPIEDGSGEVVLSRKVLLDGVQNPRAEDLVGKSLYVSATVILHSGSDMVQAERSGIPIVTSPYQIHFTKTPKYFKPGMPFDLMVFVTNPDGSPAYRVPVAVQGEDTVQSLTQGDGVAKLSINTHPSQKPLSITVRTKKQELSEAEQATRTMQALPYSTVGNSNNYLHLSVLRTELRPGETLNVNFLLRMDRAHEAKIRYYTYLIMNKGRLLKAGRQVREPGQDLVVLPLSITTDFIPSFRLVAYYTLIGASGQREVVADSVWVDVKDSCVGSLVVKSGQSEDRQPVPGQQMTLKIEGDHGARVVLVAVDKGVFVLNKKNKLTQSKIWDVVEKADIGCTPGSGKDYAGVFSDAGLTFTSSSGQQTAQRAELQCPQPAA
T1 sequence (P01024 749-954 limits assumed, chain 2 of 3): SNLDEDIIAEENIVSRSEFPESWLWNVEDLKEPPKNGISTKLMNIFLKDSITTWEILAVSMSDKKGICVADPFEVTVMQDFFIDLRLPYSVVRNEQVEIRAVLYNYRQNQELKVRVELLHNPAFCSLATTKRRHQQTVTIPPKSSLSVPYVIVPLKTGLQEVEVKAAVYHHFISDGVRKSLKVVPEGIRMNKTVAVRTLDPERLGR
T1 sequence (P01024 1321-1663 limits assumed, chain 3 of 3): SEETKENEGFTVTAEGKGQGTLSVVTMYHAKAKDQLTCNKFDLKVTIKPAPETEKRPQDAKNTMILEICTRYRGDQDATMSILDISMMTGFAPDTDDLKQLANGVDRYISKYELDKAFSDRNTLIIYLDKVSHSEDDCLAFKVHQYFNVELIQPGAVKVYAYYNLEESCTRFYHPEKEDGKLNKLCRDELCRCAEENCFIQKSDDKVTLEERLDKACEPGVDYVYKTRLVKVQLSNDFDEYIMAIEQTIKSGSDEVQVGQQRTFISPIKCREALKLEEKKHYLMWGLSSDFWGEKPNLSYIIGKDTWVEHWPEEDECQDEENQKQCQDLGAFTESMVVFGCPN
Procedure: (§1) The binding affinity of Peptide 2 was evaluated in a competitive microscale thermophoresis assay, using a Monolith NT.115 instrument (NanoTemper Technologies GmbH, Munich, Germany). Competition was performed against the Competition Peptide, labeled with Cy5 for signal detection. Two different 1:1 serial dilution series of Peptide 2 were performed in MST buffer (50 mM Tris-HCl, 150 mM NaCl, 10 mM MgCl₂, 0.05% Tween 20). The first dilution series started with a final concentration of 333 μM and ended in a final concentration of 40.69 nM, while the second dilution series started with a final concentration of 166.67 μM and ended in a final concentration of 20.35 nM. To each dilution series of Peptide 2, purified C3c (Complement Technology) and the Competition Peptide (unlabeled form) were dissolved to final concentrations of 117 nM (Peptide 2) and 50 nM (Competition Peptide). The resulting mixture was incubated for 15 minutes in the dark at room temperature. Following the incubation, the samples were loaded into hydrophilic capillary tubes and the thermophoretic response of the fluorescently labeled marker was measured. […]
(§2) The binding affinity of Peptide 2 to C3c was determined using the microscale thermophoresis assay described herein. […]

[7] = biological target: T1, purified C3c (Complement Technology); assay: competitive microscale thermophoresis: Peptide 2 titrated against C3c in the presence of the Cy5-labeled Competition Peptide, mean±SEM of 7 replicates
Procedure: The labeled form of the Competition Peptide was used. Thermophoretic data is plotted as mean±SEM from 7 replicate experiments, together with the fitted binding curve. The dotted lines in red indicate the 95% confidence interval of the fitted binding curve. The black dotted line represents the baseline thermophoretic response in the absence of binding. The inset table indicates the KD±SEM.
as §1, with “To each dilution series of Peptide 2, purified C3c (Complement Technology) and the Competition Peptide (unlabeled form) were dissolved to final concentrations of 117 nM (Peptide 2) and 50 nM (Competition Peptide). The resulting mixture was incubated for 15 minutes in the dark at room temperature.” left out
as §2

## CC[C@H](C)[C@H](NC(=O)[C@H](CO)NC(=O)[C@H](CCCNC(=N)N)NC(C)=O)C(=O)N[C@H]1CSSC[C@@H](C(=O)N[C@H](C(=O)NCCOCCOCCOCCOCCOCCOCCOCCOCCC(N)=O)[C@@H](C)O)NC(=O)[C@H](CCCNC(=N)N)NC(=O)[C@H](Cc2c[nH]cn2)NC(=O)[C@H](C)NC(=O)CNC(=O)[C@H](Cc2c[nH]c3ccccc23)NC(=O)[C@H](CC(=O)O)NC(=O)[C@H](CCC(N)=O)NC(=O)[C@H](Cc2c[nH]c3ccccc23)NC(=O)[C@H](C(C)C)NC1=O [Peptide 2, Ac-RSI[CVWQDWGAHRC]T-PEG8-NH2]
Complement activation [1]
  IC50: 960 nM
[2]
  apparent solubility (comparison): significantly higher apparent solubility than the parent Peptide 1 and the Competition Peptide
[2]; absorbance at 280 nm
  slope of correlation between calculated and observed concentrations: 0.92
[3]
  reduction in NHS-induced basal C5b-9n deposition: 80%
[3]; formation of C5b-9-rich sub-RPE deposits
  inhibitory effect relative to parent Peptide 1: two-fold greater inhibitory effect

## CC[C@H](C)[C@H](N)C(=O)N[C@H]1CSSC[C@@H](C(=O)N[C@H](C(N)=O)[C@@H](C)O)NC(=O)[C@H](CCCN=C(N)N)NC(=O)[C@H](Cc2cnc[nH]2)NC(=O)[C@H](Cc2cnc[nH]2)NC(=O)CNC(=O)[C@H](Cc2c[nH]c3ccccc23)NC(=O)[C@H](CC(=O)O)NC(=O)[C@H](CCC(N)=O)NC(=O)[C@H](C(C)C)NC(=O)[C@H](C(C)C)NC1=O [compstatin, ICVVQDWGHHRCT]
Complement activation [4]
  IC50: ~12900 nM

## Ac-RSI[CVWQDWGAHRC]T-NH2 (Ac-RSICVWQDWGAHRCT-NH2; disulfide 4-14) [Peptide 1, reference compound]
[3]
  reduction in NHS-induced basal C5b-9n deposition: 50%

## Ac-RSICVWQDWGAHRCT-NH2 (disulfide 4-14) [Peptide 1, Ac-RSI[CVWQDWGAHRC]T-NH2]
[5]
  Mean IC50, hemolytic assay (rabbit erythrocytes, normal human serum, alternative pathway): 970 nM

B1: Competition Peptide, unlabeled, Ac-I[CVWQDWGAHRC]TAGK-NH2 (peptide)
peptide: Ac-ICVWQDWGAHRCTAGK-NH2
modifications: disulfide 2-12
SMILES: CC[C@H](C)[C@H](NC(C)=O)C(=O)N[C@H]1CSSC[C@@H](C(=O)N[C@H](C(=O)N[C@@H](C)C(=O)NCC(=O)N[C@@H](CCCCN)C(N)=O)[C@@H](C)O)NC(=O)[C@H](CCCNC(=N)N)NC(=O)[C@H](Cc2c[nH]cn2)NC(=O)[C@H](C)NC(=O)CNC(=O)[C@H](Cc2c[nH]c3ccccc23)NC(=O)[C@H](CC(=O)O)NC(=O)[C@H](CCC(N)=O)NC(=O)[C@H](Cc2c[nH]c3ccccc23)NC(=O)[C@H](C(C)C)NC1=O
[5]
  Mean IC50, hemolytic assay (rabbit erythrocytes, normal human serum, alternative pathway): 1400 nM

B2: Peptide 2, Ac-RSI[CVWQDWGAHRC]T-PEG8-NH2 (peptide)
peptide: Ac-RSICVWQDWGAHRCT-{PEG8′-NH2}
modifications: disulfide 4-14
notes: Synthetic compstatin analog with an Arg-Ser N-terminal extension and a C-terminal PEG8; molecular mass 2279; also called PEGylated Peptide 2; PEGylated compstatin peptide
[6]
  Kd: 690 nM
[5]
  Mean IC50, hemolytic assay (rabbit erythrocytes, normal human serum, alternative pathway): 960 nM
[7]
  IC50 (read off the curve): ~700 nM
